For assay [1], the system named is Staphylococcus aureus NRS120. As to the kind of experiment: MIC determination using agar dilution method. It is filed as cell-based. The settings on record: MRSA / NRS 120, read-out: MIC (μg/ml) NRS120. On the procedure: (§1) Antibacterial activity was determined on strains from Mutabilis internal collection.
(§2) This protocol is compliant with Clinical Laboratory Standards Institute (CLSI) methodology as described in M7-A7 document of the CLSI. The compound to be tested is incorporated into Mueller-Hinton Agar medium (Fluka, Reference 70191) at one concentration per plate according to a geometric series of reason 2. Plates are inoculated with mid-log phase bacteria (inoculum=1×10^4 cfu/spot) and incubated overnight at 35° C. […] All manipulations, but compound handling (in pure DMSO), are performed under sterile conditions. The final DMSO concentration of DMSO in the plates is 2%. Vancomycin is used as reference.

For assay [2], the system named is Staphylococcus aureus NRS383. As to the kind of experiment: MIC determination using agar dilution method. It is filed as cell-based. Conditions: MRSA / NRS 383, read-out: MIC (μg/ml) NRS383. As for the experimental part: as §1, §2
In general terms: Agar dilution tests growth on a series of plates holding different concentrations.

Assay [3] has as its system Staphylococcus aureus NRS386. As to the kind of experiment: MIC determination using agar dilution method. It is filed as cell-based. Conditions: MRSA / NRS 386, read-out: MIC (μg/ml) NRS386. On the procedure:
as §1, §2

Assay [4] concerns Staphylococcus aureus NRS262. As to the kind of experiment: MIC determination using agar dilution method. It is filed as cell-based. Conditions: MSSA / NRS 262, read-out: MIC (μg/ml) NRS262. On the procedure: as §1, §2
In assay [5] the test system is Staphylococcus aureus NRS483. As to the kind of experiment: MIC determination using agar dilution method. Type of assay: cell-based. Conditions: MRSA / NRS 483, read-out: MIC (μg/ml) NRS483. As for the experimental part: as §1, §2
Assay [6] relates to Staphylococcus aureus NRS22. As to the kind of experiment: MIC determination using agar dilution method. Type of assay: cell-based. Conditions: MRSA / NRS 22, read-out: MIC (μg/ml) NRS22. As for the experimental part:
as §1, §2

Assay [7] concerns Staphylococcus aureus NRS382. As to the kind of experiment: MIC determination using agar dilution method. Type of assay: cell-based. Conditions: MRSA / NRS 382, read-out: MIC (μg/ml) NRS382. On the procedure:
as §1, §2

Assay [8] deals with Staphylococcus aureus NRS482. As to the kind of experiment: MIC determination using agar dilution method. It is filed as cell-based. The settings on record: MRSA / NRS 482, read-out: MIC (μg/ml) NRS482. On the procedure:
as §1, §2

For assay [9], the system named is Staphylococcus aureus NRS192. As to the kind of experiment: MIC determination using agar dilution method. The settings on record: MRSA / NRS 192, read-out: MIC (μg/ml) NRS192. It is filed as cell-based. As for the experimental part: as §1, §2
Assay [10] has as its system Staphylococcus aureus NRS121. As to the kind of experiment: MIC determination using agar dilution method. Type of assay: cell-based. The settings on record: MRSA / NRS 121, read-out: MIC (μg/ml) NRS121. As for the experimental part:
as §1, §2

The test system of assay [11] is Staphylococcus aureus NRS123. As to the kind of experiment: MIC determination using agar dilution method. It is filed as cell-based. The settings on record: MRSA / NRS 123, read-out: MIC (μg/ml) NRS123. On the procedure:
as §1, §2

The test system of assay [12] is Staphylococcus aureus NRS484. As to the kind of experiment: MIC determination using agar dilution method. Type of assay: cell-based. The settings on record: MRSA / NRS 484, read-out: MIC (μg/ml) NRS484. As for the experimental part:
as §1, §2

Assay [13] deals with Staphylococcus aureus NRS385. As to the kind of experiment: MIC determination using agar dilution method. Type of assay: cell-based. The settings on record: MRSA / NRS 385, read-out: MIC (μg/ml) NRS385. On the procedure: as §1, §2
Assay [14] concerns Staphylococcus aureus NRS100. As to the kind of experiment: MIC determination using agar dilution method. Type of assay: cell-based. The settings on record: MRSA / NRS 100, read-out: MIC (μg/ml) NRS100. As for the experimental part: as §1, §2
In assay [15] the test system is Staphylococcus aureus NRS130. As to the kind of experiment: MIC determination using agar dilution method. It is filed as cell-based. The settings on record: MSSA / NRS 130, read-out: MIC (μg/ml) NRS130. As for the experimental part: as §1, §2
The test system of assay [16] is Staphylococcus aureus NRS127. As to the kind of experiment: MIC determination using agar dilution method. Type of assay: cell-based. Conditions: MRSA / NRS 127, read-out: MIC (μg/ml) NRS127. On the procedure:
as §1, §2

In assay [17] the test system is Staphylococcus aureus NRS384. As to the kind of experiment: MIC determination using agar dilution method. The settings on record: MRSA / NRS 384, read-out: MIC (μg/ml) NRS384. It is filed as cell-based. On the procedure:
as §1, §2

Assay [18] has as its system Staphylococcus aureus NRS119. As to the kind of experiment: MIC determination using agar dilution method. Type of assay: cell-based. The settings on record: MRSA / NRS 119, read-out: MIC (μg/ml) NRS119. As for the experimental part: as §1, §2
Assay [19] relates to Staphylococcus aureus NRS128. As to the kind of experiment: MIC determination using agar dilution method. Type of assay: cell-based. Conditions: MSSA / NRS 128, read-out: MIC (μg/ml) NRS128. On the procedure:
as §1, §2

For assay [20], the system named is Staphylococcus aureus NRS269. As to the kind of experiment: MIC determination using agar dilution method. It is filed as cell-based. Conditions: MRSA / NRS 269, read-out: MIC (μg/ml) NRS269. As for the experimental part:
as §1, §2

Another assay deals with E. coli FabI (Escherichia coli (strain K12), UniProt P0AEK4). The settings on record: literature (Ward et al.); cited from earlier work.
For the next assay, the system named is S. aureus CIP 54.146. As to the kind of experiment: MIC determination using broth microdilution method. It is filed as cell-based. The settings on record: Staphylococcus aureus, CIP54 / MSSA, read-out: MIC (μg/ml) S. aureus CIP 54.146. On the procedure:
The compounds of the invention are useful antibacterial agents having a selective spectrum of activity in vitro against bacterial strains relying on FabI and related targets. […] The activity is presented as Minimum Inhibitory Concentration (MIC) expressed in μg/ml and was determined using broth microdilution or Agar dilution methods.
as §1
This protocol is compliant with Clinical Laboratory Standards Institute (CLSI) methodology as described in M7-A7 document of the CLSI. The compound to be tested is diluted according to a geometric series of reason 2 in pure DMSO. Dilutions are transferred in sterile polystyrene microplates, followed by mid-log phase bacteria in cation-adjusted Muller-Hinton broth (ca-MHB, Fluka, Reference 90922) with a final inoculum of 5×10^5 cfu/ml. Microplates are incubated overnight at 35° C. MIC is defined as the lowest concentration of antimicrobial agent that completely prevents visible bacterial growth. All manipulations, but compound handling (in pure DMSO), are performed under sterile conditions. The final concentration of DMSO in the plates is 2%.
On the technique in general: Dilution methods test growth across graded concentrations, often in twofold steps.

Assay [21] has as its system Staphylococcus aureus strain ATCC 29213. As to the kind of experiment: In vivo antibacterial activity, thigh infection model in neutropenic Swiss mice. Conditions: 50 mg/kg subcutaneously, 1.5 h after infection, FIG. 2.
The target in assay [22] is recombinant S. aureus FabI enzyme (Staphylococcus aureus (strain MRSA252), UniProt Q6GI75). As to the kind of experiment: FabI inhibition, fluorescence based assay. Type of assay: biochemical. Conditions: in vitro. On the procedure: Compound inhibitory activity of FabI enzyme is measured in vitro by the […] determination using a fluorescence based assay.
The protein FabI from S. aureus is prepared and purified using standard methods for recombinant protein expression after cloning of the gene in a prokaryotic expression vector.
The biochemical activity of the FabI enzyme is assessed using the following method.
The assay buffer “AB” contained 50 mM ADA (N-(2-acetamido)iminodiacetic acid monosodium salt) pH 6.5, 1 mM dithiothreitol, 0.006% Triton-X100 and 50 mM NaCl.
The following components are added in a white polystyrene Costar plate (Ref 3912) up to a final volume of 55.5 μL: 1.5 μL DMSO or inhibitor dissolved in DMSO and 54 μL of a FabI/NADPH/NADP+ mixture in AB. After 60 min of pre-incubation at room temperature, the reaction is started by addition of 5 μL of trans-2-octenoyl N-acetylcysteamine thioester (t-o-NAC) to a final volume of 60.5 μL. This reaction mixture is then composed of 2 nM FabI, 40 μM NADPH (Sigma, N7505), 10 μM NADP+ (Sigma, N5755), 100 μM t-O-NAC and compound at defined concentration. Fluorescence intensity of NADPH (λex=360 nm, […]) is measured immediately after t-O-NAC addition (T0), and approximately 50 min later (T50) by a Fluostar Optima (BMG) so as to achieve ±30% of NADPH conversion. Enzyme activity is calculated by first subtracting TO signal to T50 and then subtracting background signal (FabI=0). Percentages of inhibition are calculated against untreated samples (Inhibitor=0) and IC50 are fitted to a classical Langmuir equilibrium model using XLFIT (IDBS).

pIC50: −log10 of the molar value. In brackets after ≈: the same amount, converted by molar mass.

E. coli FabI, sequence (P0AEK4 whole entry): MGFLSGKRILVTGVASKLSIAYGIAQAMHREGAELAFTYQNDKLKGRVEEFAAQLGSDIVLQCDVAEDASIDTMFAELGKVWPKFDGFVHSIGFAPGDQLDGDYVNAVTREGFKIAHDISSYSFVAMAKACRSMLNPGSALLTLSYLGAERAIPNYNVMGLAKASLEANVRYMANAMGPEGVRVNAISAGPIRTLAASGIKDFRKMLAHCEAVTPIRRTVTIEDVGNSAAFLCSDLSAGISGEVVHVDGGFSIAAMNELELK

As for `CN[C@H](CC(C)C)C(=O)N[C@H]1C(=O)N[C@@H](CC(N)=O)C(=O)N[C@H]2C(=O)N[C@H]3C(=O)N[C@H](C(=O)N[C@H](C(=O)O)c4cc(O)cc(O)c4-c4cc3ccc4O)[C@H](O)c3ccc(c(Cl)c3)Oc3cc2cc(c3O[C@@H]2O[C@H](CO)[C@@H](O)[C@H](O)[C@H]2O[C@H]2C[C@](C)(N)[C@H](O)[C@H](C)O2)Oc2ccc(cc2Cl)[C@H]1O` [Vancomycin, reference compound], the MIC was found to be 1 µg/mL (≈ 0.69 µM) in assay [1]; 0.5 µg/mL (≈ 0.345 µM) in assay [2]; 1 µg/mL (≈ 0.69 µM) in assay [3]; 1 µg/mL (≈ 0.69 µM) in [4]; 1 µg/mL (≈ 0.69 µM) in assay [5]; 4 µg/mL (≈ 2.76 µM) in [6]. For the same compound, the MIC in assay [7], in [8], in assay [9], in assay [10], in [11] and in [12] was 1 µg/mL (≈ 0.69 µM) in each case. Further, the MIC in assay [13], in assay [14], in assay [15], in [16], in assay [17] and in [18] was 1 µg/mL (≈ 0.69 µM) each time. Besides, the MIC is 1 µg/mL (≈ 0.69 µM) in [19] and 2 µg/mL (≈ 1.38 µM) in [20].

With `Oc1cc(Cl)ccc1Oc1ccc(Cl)cc1Cl` [Triclosan], the “inhibition of E. coli FabI” value on E. coli FabI was “reversible, tight-binding inhibitor”.

One may read the pIC50 as the negative decadic logarithm of the IC50, by convention in mol/L. In the case of `CCCCCOC1CN(C(=O)/C=C/c2cnc3c(c2)CCC(=O)N3)C1` [Example 15, 6-{(1E)-3-Oxo-3-[3-(pentyloxy)azetidin-1-yl]prop-1-en-1-yl}-3,4-dihydro-1,8-naphthyridin-2(1H)-one], the MIC was determined as 2 µg/mL (≈ 5.82 µM) in assay [1]; 4 µg/mL (≈ 11.6 µM) in assay [2]; 4 µg/mL (≈ 11.6 µM) in assay [3]; 4 µg/mL (≈ 11.6 µM) in assay [4]; 4 µg/mL (≈ 11.6 µM) in assay [5]; 4 µg/mL (≈ 11.6 µM) in assay [6]. The MIC in assay [7] stood at 4 µg/mL (≈ 11.6 µM); in assay [8], 4 µg/mL (≈ 11.6 µM); in assay [9], 4 µg/mL (≈ 11.6 µM); in assay [10], 2 µg/mL (≈ 5.82 µM); in assay [11] it was 2 µg/mL (≈ 5.82 µM); in assay [12] it was 4 µg/mL (≈ 11.6 µM). Also, the MIC in assay [13] came to 4 µg/mL (≈ 11.6 µM); in assay [14], 1 µg/mL (≈ 2.91 µM); in assay [15] it was 2 µg/mL (≈ 5.82 µM); in assay [16], 2 µg/mL (≈ 5.82 µM); in [17] it was 4 µg/mL (≈ 11.6 µM); in [18] it was 2 µg/mL (≈ 5.82 µM). Besides, the MIC turned out to be 1 µg/mL (≈ 2.91 µM) in [19], 4 µg/mL (≈ 11.6 µM) in assay [20] and 4 µg/mL (≈ 11.6 µM) in the assay on S. aureus CIP 54.146. In assay [21], the “in vivo antibacterial activity (bacterial burden in the thigh of infected mice)” value was “able to protect mice against thigh dissemination”. Moreover, in [22], the pIC50 was 7.60.
